From patent US20130131161A1, “METHODS AND COMPOSITIONS FOR CARDIOVASCULAR DISEASES AND CONDITIONS” (priority 2009, published 2013)

System: Human umbilical vein endothelial cells (HUVECs)
Test: eNOS activity analysis: NO, ONOO− and NO/ONOO− release from HUVECs of 50 genotyped donors in response to LA-419 (Example 2)
Format: cell-based
Details: LA-419 5 μM
Protocol: Concurrent measurements of NO and ONOO^− were carried out with tandem electrochemical nanosensors combined into one working unit with a total diameter of 200-500 nm (FIG. 1). Their design was based on previously developed and well-characterized chemically modified carbon-fiber technology (Malinski and Taha, 1992; Lvovich and Scheeline, 1997). Each of the nanosensors was made by depositing a sensing material on the tip of a carbon fiber (length 4-5 μm, diameter 0.2-0.5 μm). The fibers were sealed with nonconductive epoxy and electrically connected to copper wires with conductive silver epoxy. A conductive film of polymeric nickel (II) tetrakis(3-methoxy-4-hydroxyphenyl)porphyrin for the NO-sensor and polymeric film of Mn (III) [2.2]paracyclophanylporphyrin was used for the ONOO^−-sensor.
A module of NO/ONOO^− nanosensors (diameter 1-2 μm) with a platinum wire (0.1 mm) counter electrode and saturated calomel reference electrode (SCE) were applied. Differential pulse voltammetry (DPV) and amperometry were performed with a computer-based Gamry VFP600 multichannel potentiostat. DPV was used to measure the basal NO and ONOO^− concentrations, and amperometry was used to measure changes in NO and ONOO^− concentrations from its basal level with time. The DPV current at the peak potential characteristic for NO oxidation (0.65 V) and ONOO^− reduction (−0.45 V) was directly proportional to the local concentrations of these compounds in the immediate vicinity of the sensor. Linear calibration curves (current vs. concentration) were constructed for each sensor from 10 nM to 3 μM before and after measurements with aliquots of NO and ONOO^− standard solutions, respectively. The detection limit of the sensors was 1.0 nM.
The quantification of each analyte (concentration in nM) was performed using a maximum current from amperograms and standard calibration curves. A reproducibility of measurements with nanosensors is relatively high (between 5-12%). […] The sensors were slowly raised 5±2 μm from the surface of a single endothelial cell. The eNOS agonist, calcium ionophore A23187 (CaI) as well as the different drugs were then added to the surrounding media at the cell surface with a nanoinjector that was also positioned by a computer controlled-micromanipulator.
This example describes the genotype-specific response of the three major eNOS variants to 1 μM and 5 μM concentrations of LA-419. The three major genetic polymorphisms studied were the Glu298Asp variant (E298D or 894G→T) in exon 7 of […], the −786T→C variant in the promoter region, and the intron 4 polymorphism (VNTR). All of these variants have possible effects on the cardiovascular system and endothelial dysfunction. For this study, human umbilical vein endothelial cells (HUVECs) from 50 donors between 18 and 32 years of age were used.
For the analysis several analysis techniques were employed. First, the effect of genotype on NO and ONOO^− release was explored within the different concentrations of LA-419 (control, 1 μM, 5 μM), calculated as the average peak release (nmols/L) of NO, ONOO^−, and NO/ONOO^−. The effect of genotype on the net increase in NO, ONOO^−, and NO/ONOO^− for LA-419 (1 μM and 5 μM) as compared to control was also measured. In addition, an analysis was done on the effect of genotype on the % change in NO, ONOO^−, and NO/ONOO^− production for LA-419 (1 μM and 5 μM), calculated as:
% Change=[(avg. LA-419−avg. control)/(avg. control)]*100
Finally, an evaluation was undertaken concerning the effect of genotype on the production of NO, ONOO^−, and NO/ONOO^− as the fold difference of control for LA-419 (1 μM and 5 μM), calculated as:
Fold Difference=(avg. LA-419)/(avg. control)
Within each calculation technique the results were compared for statistical significance using a non-parametric ANOVA Kruskal-Wallace test or a non-parametric Mann-Whitney U test. Statistical significance was set at a p-value <0.05 in a two-tailed distribution. […]

[1] = HUVECs Intron 4 variant b/a, a/a, c/c
[2] = HUVECs T-786C variant T/C & C/C

SMILES: CC(=O)SC1COC2C(O[N+](=O)[O-])COC12 (stereo not drawn) [LA-419, S-(6-Nitro-oxi-hexahydro-furo[3,2-b]furan-3-1-il)thioacetate]
- Peak release ONOO− (mean ± sd) (HUVECs G894T variant G/G): 288.82 (78.22) nmols/L
- % Change Ratio, % Change NO/% Change ONOO− (mean ± sd) (HUVECs G894T variant G/T): −0.88 (0.60)
- Net increase over control NO (mean ± sd) (HUVECs G894T variant G/T): 45.87 (19.24) nmols/L
- Net increase over control NO/ONOO− (mean ± sd) (HUVECs G894T variant G/T): −0.94 (0.88)
- Net increase over control ONOO− (mean ± sd) (HUVECs G894T variant G/T): −65.80 (26.77) nmols/L
- Peak release NO (mean ± sd) (HUVECs G894T variant G/T): 400.63 (80.27) nmols/L
- Peak release NO/ONOO− (mean ± sd) (HUVECs G894T variant G/T): 1.44 (0.49)
- Peak release ONOO− (mean ± sd) (HUVECs G894T variant G/T): 300.15 (75.86) nmols/L
- Net increase over control NO (mean ± sd) (HUVECs G894T variant G/T & T/T): 45.12 (21.46) nmols/L
- Net increase over control NO/ONOO− (mean ± sd) (HUVECs G894T variant G/T & T/T): −0.91 (0.90)
- Net increase over control ONOO− (mean ± sd) (HUVECs G894T variant G/T & T/T): −69.51 (27.46) nmols/L
- Peak release NO (mean ± sd) (HUVECs G894T variant G/T & T/T): 398.42 (88.37) nmols/L
- Peak release NO/ONOO− (mean ± sd) (HUVECs G894T variant G/T & T/T): 1.39 (0.53)
- Peak release ONOO− (mean ± sd) (HUVECs G894T variant G/T & T/T): 314.55 (84.72) nmols/L
- % Change Ratio, % Change NO/% Change ONOO− (mean ± sd) (HUVECs G894T variant T/T): −0.80 (0.73)
- Net increase over control NO (mean ± sd) (HUVECs G894T variant T/T): 42.40 (30.77) nmols/L
- Net increase over control NO/ONOO− (mean ± sd) (HUVECs G894T variant T/T): −0.78 (1.05)
- Net increase over control ONOO− (mean ± sd) (HUVECs G894T variant T/T): −82.87 (28.56) nmols/L
- Peak release NO (mean ± sd) (HUVECs G894T variant T/T): 390.47 (124.39) nmols/L
- Peak release NO/ONOO− (mean ± sd) (HUVECs G894T variant T/T): 1.21 (0.68)
- Peak release ONOO− (mean ± sd) (HUVECs G894T variant T/T): 366.40 (103.55) nmols/L
- Net increase over control NO (mean ± sd) (HUVECs Intron 4 variant a/a): 52.00 (16.74) nmols/L
- Net increase over control NO/ONOO− (mean ± sd) (HUVECs Intron 4 variant a/a): 0.41 (0.19)
- Net increase over control ONOO− (mean ± sd) (HUVECs Intron 4 variant a/a): −63.78 (14.11) nmols/L
- Peak release NO (mean ± sd) (HUVECs Intron 4 variant a/a): 438.33 (79.68) nmols/L
- Peak release NO/ONOO− (mean ± sd) (HUVECs Intron 4 variant a/a): 1.48 (0.64)
- Peak release ONOO− (mean ± sd) (HUVECs Intron 4 variant a/a): 331.22 (117.30) nmols/L
- Net increase over control NO (mean ± sd) (HUVECs Intron 4 variant b/a): 54.53 (23.50) nmols/L
- Net increase over control NO/ONOO− (mean ± sd) (HUVECs Intron 4 variant b/a): 0.45 (0.22)
- Net increase over control ONOO− (mean ± sd) (HUVECs Intron 4 variant b/a): −72.30 (25.81) nmols/L
- Peak release NO (mean ± sd) (HUVECs Intron 4 variant b/a): 375.20 (81.45) nmols/L
- Peak release NO/ONOO− (mean ± sd) (HUVECs Intron 4 variant b/a): 1.42 (0.61)
- Peak release ONOO− (mean ± sd) (HUVECs Intron 4 variant b/a): 295.73 (85.11) nmols/L
- Net increase over control NO (mean ± sd) [1]: 47.30 (22.42) nmols/L
- Net increase over control NO/ONOO− (mean ± sd) [1]: 0.44 (0.20)
- Net increase over control ONOO− (mean ± sd) [1]: −72.31 (23.65) nmols/L
- Peak release NO (mean ± sd) [1]: 392.83 (80.05) nmols/L
- Peak release NO/ONOO− (mean ± sd) [1]: 1.43 (0.57)
- Peak release ONOO− (mean ± sd) [1]: 305.67 (86.01) nmols/L
- Net increase over control NO (mean ± sd) (HUVECs Intron 4 variant b/b): 47.30 (22.42) nmols/L
- Net increase over control NO/ONOO− (mean ± sd) (HUVECs Intron 4 variant b/b): 0.43 (0.20)
- Net increase over control ONOO− (mean ± sd) (HUVECs Intron 4 variant b/b): −70.32 (30.56) nmols/L
- Peak release NO (mean ± sd) (HUVECs Intron 4 variant b/b): 400.83 (81.57) nmols/L
- Peak release NO/ONOO− (mean ± sd) (HUVECs Intron 4 variant b/b): 1.46 (0.51)
- Peak release ONOO− (mean ± sd) (HUVECs Intron 4 variant b/b): 298.99 (79.66) nmols/L
- Net increase over control NO (mean ± sd) (HUVECs Intron 4 variant c/c): 64.00 (0) nmols/L
- Net increase over control NO/ONOO− (mean ± sd) (HUVECs Intron 4 variant c/c): 0.46 (0)
- Net increase over control ONOO− (mean ± sd) (HUVECs Intron 4 variant c/c): −98.00 (0) nmols/L
- Peak release NO (mean ± sd) (HUVECs Intron 4 variant c/c): 432.67 (0) nmols/L
- Peak release NO/ONOO− (mean ± sd) (HUVECs Intron 4 variant c/c): 1.32 (0)
- Peak release ONOO− (mean ± sd) (HUVECs Intron 4 variant c/c): 328.33 (0) nmols/L
- % Change Ratio, % Change NO/% Change ONOO− (mean ± sd) (HUVECs T-786C variant C/C): −0.62 (0.39)
- Net increase over control NO (mean ± sd) (HUVECs T-786C variant C/C): 38.00 (17.39) nmols/L
- Net increase over control NO/ONOO− (mean ± sd) (HUVECs T-786C variant C/C): −0.52 (0.36)
- Net increase over control ONOO− (mean ± sd) (HUVECs T-786C variant C/C): −82.58 (26.16) nmols/L
- Peak release NO (mean ± sd) (HUVECs T-786C variant C/C): 370.17 (86.78) nmols/L
- Peak release NO/ONOO− (mean ± sd) (HUVECs T-786C variant C/C): 1.32 (0.71)
- Peak release ONOO− (mean ± sd) (HUVECs T-786C variant C/C): 322.33 (110.70) nmols/L
- % Change Ratio, % Change NO/% Change ONOO− (mean ± sd) (HUVECs T-786C variant T/C): −0.81 (0.56)
- Net increase over control NO (mean ± sd) (HUVECs T-786C variant T/C): 47.26 (23.70) nmols/L
- Net increase over control NO/ONOO− (mean ± sd) (HUVECs T-786C variant T/C): −0.86 (0.80)
- Net increase over control ONOO− (mean ± sd) (HUVECs T-786C variant T/C): −65.86 (23.41) nmols/L
- Peak release NO (mean ± sd) (HUVECs T-786C variant T/C): 396.81 (95.72) nmols/L
- Peak release NO/ONOO− (mean ± sd) (HUVECs T-786C variant T/C): 1.41 (0.56)
- Peak release ONOO− (mean ± sd) (HUVECs T-786C variant T/C): 310.97 (82.59) nmols/L
- Net increase over control NO (mean ± sd) [2]: 45.89 (22.83) nmols/L
- Net increase over control NO/ONOO− (mean ± sd) [2]: −0.81 (0.76)
- Net increase over control ONOO− (mean ± sd) [2]: −68.33 (24.07) nmols/L
- Peak release NO (mean ± sd) [2]: 392.86 (93.35) nmols/L
- Peak release NO/ONOO− (mean ± sd) [2]: 1.39 (0.57)
- Peak release ONOO− (mean ± sd) [2]: 312.65 (84.87) nmols/L
- % Change Ratio, % Change NO/% Change ONOO− (mean ± sd) (HUVECs T-786C variant T/T): −0.90 (0.47)
- Net increase over control NO (mean ± sd) (HUVECs T-786C variant T/T): 55.91 (19.06) nmols/L
- Net increase over control NO/ONOO− (mean ± sd) (HUVECs T-786C variant T/T): −0.95 (0.67)
- Net increase over control ONOO− (mean ± sd) (HUVECs T-786C variant T/T): −76.48 (33.23) nmols/L
- Peak release NO (mean ± sd) (HUVECs T-786C variant T/T): 405.83 (58.51) nmols/L
- Peak release NO/ONOO− (mean ± sd) (HUVECs T-786C variant T/T): 1.52 (0.45)
- Peak release ONOO− (mean ± sd) (HUVECs T-786C variant T/T): 286.47 (76.65) nmols/L
- % increase in peak NO generation, range within genotype groups (Table u1): 11.6 to 17.4%
- increase in NO/OONO− ratio, range over all genotypes (Table u3): 37-53%
- peak release of NO versus control (all genotypes (Table b1)): increase
- greater net increase in NO, major allele variant vs minor allele carriers (exon 7, p 0.10): 22%
- greater net increase in NO, major allele variant vs minor allele carriers (promoter, p 0.12): 22%
